The values below come from publication PMC6273329, “Synthesis of N-(6-Arylbenzo[d]thiazole-2-acetamide Derivatives and Their Biological Activities: An Experimental and Computational Approach” (Molecules, 2016).

Data set [1] in a line: Nitric oxide scavenging assay (Garrat method, Griess reagent). Here is the method: The literature contains reports on the antioxidant activities of 6-flourobenzothiazole-substituted triazoles using DPPH assays. […] Having a phenyl ring on the pyrozoline increased the antioxidant activity in the ferric ion reduction and DPPH solution methods. […] Synthesized compounds with their calculated IC50 values are listed in Table 5 (Figure 8 and Figure 9).
The activity of newly synthesized benzothiazole derivatives was determined using the Garrat method. Griess reported the Garrat method which is followed by a diazotization reaction. Under acidic conditions, this method utilizes sodium nitroprusside as the source of nitric oxide, sulfanilamide and N-1-naphthylethylenediamine dihydrochloride to detect NO2^−, produced at the expense of nitric oxide. A known amount of tested compounds 3a–3h was dissolved in sodium nitroprusside solution (20 mM, 100 µL) and then the volume was made up to 1000 µL with phosphate buffer (200 mM, pH 7.4). This solution was incubated for 2 h at 37 °C and Griess reagent (100 µL) was added. This solution was stored for 20 min at room temperature. At 528 nm, optical density of this colored solution was observed. For positive control, ascorbic acid was used.
Background: The Griess reaction detects nitrite, a stable product of nitric oxide.

The next data set has as its system S. dysenteriae. The data set can be described thus: Antibacterial activity, 96 well plate method. The format is cell-based. The note with it: Shigella dysenteriae, read-out: % Activity at 40 μg/mL, S. dysenteriae. As for the experimental part:
The synthesized benzothiazole derivatives were examined for their anti-bacterial activity against two Gram positive-bacterial strains (Baccilus subtiles, Staphylococcus aureus) and four Gram-negative strains (Escherichia coli, Psuedomonas aeruginosa, Shigella dysenteriae, Salmonella typhae) at concentrations of 40 and 80 μg/mL (Table 7 and Table 8). It was concluded that the potent antibacterial activities of these compounds might be due to electron withdrawing groups present on the aryl moiety in N-protected benzothiazole molecule.
These newly benzothiazole derivatives were tested for their antibacterial activities against two Gram positive strains (Baccilus subtilis, Staphylococcus aureus) and four Gram negative strains (Escherichia coli, Psuedomonas aeruginosa, Shigella dysenteriae and Salmonella typhae) using a reported protocol. Streptomycin was used as positive control. The 96 well plate method was optimized for measuring the antibacterial activities of these compounds. In each well, sterilized broth (175 µL) was added and inoculated with glycerol stock (5 µL) of a specific bacterial strain. The initial absorbance was observed between 0.12–0.19. […] After a certain waiting time (12 h), test sample (20 µL) was added to the pre-determined wells. […] The difference in absorbance values were observed and were used as an index of bacterial growth. […]

For another data set, the target named is urease (Canavalia ensiformis, UniProt P07374). The data set can be described thus: biochemical. Particulars: for % Inhibition at 40 µg/mL / inhibition at 15 µg/mL / inhibition at 40 µg/mL: mean ± SD of three measurements; for IC50: urease inhibition, in vitro; for inhibition at 15 µg/mL: read-out: % Inhibition at 15 µg/mL, 15 µg/mL; for inhibition at 40 µg/mL: read-out: % Inhibition at 40 µg/mL, 40 µg/mL. The format is biochemical.
urease, sequence (P07374 whole entry, looked up): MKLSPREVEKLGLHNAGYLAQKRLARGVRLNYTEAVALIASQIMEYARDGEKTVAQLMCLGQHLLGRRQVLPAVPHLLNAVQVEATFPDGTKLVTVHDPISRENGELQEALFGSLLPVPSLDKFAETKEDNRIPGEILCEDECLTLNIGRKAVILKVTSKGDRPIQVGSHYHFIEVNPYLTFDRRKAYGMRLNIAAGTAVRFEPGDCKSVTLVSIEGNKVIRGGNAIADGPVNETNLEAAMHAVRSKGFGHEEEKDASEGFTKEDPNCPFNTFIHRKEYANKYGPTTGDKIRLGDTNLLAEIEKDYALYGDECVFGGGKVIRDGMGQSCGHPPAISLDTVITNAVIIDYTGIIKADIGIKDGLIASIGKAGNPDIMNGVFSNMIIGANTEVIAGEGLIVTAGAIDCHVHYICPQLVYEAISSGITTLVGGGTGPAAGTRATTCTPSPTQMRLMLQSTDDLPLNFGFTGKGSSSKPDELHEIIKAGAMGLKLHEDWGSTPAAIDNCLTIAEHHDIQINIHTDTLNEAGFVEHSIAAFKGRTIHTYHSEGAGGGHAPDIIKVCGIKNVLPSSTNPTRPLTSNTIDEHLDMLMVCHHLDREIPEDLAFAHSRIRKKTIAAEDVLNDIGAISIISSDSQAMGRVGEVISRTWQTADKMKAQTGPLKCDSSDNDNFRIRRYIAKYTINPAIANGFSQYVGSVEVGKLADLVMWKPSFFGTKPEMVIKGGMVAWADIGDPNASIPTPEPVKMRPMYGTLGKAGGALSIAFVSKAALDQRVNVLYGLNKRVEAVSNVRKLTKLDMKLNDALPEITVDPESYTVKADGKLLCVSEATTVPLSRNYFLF

The subject of a further data set is red blood cells. Type of data set: cell-based. Here is the method: The haemolytic activity of benzothiazole derivatives has already been reported. […] Benzothiazole compounds with halogen substitutions show cytotoxicity towards cancer cell lines. The haemolytic activity of the newly synthesized benzothiazole derivatives were studied against Triton X-100 by a reported method.
Haemolytic activity of newly synthesized benzothiazole derivatives 3a–3h was determined using a reported method. Solutions of compounds were prepared at concentrations of 1 mg/mL in 10% DMSO with 90% water Heparinized human fresh blood (3 mL) was used that was homogeneously mixed and added into a 15 mL sterile Falcon tube. It was centrifuged for 5 min and the supernatant was removed. Chilled sterile isotonic phosphate buffer saline solution (5 mL, 7.4 pH) at 4 °C was used three times. Washed red blood cells were suspended in chilled RBS (20 mL). A haemacytometer was used for counting erythrocytes. For each assay 7.068 × 10^8 red blood cells per mL count were maintained and then diluted blood cells (180 µL) were added to the test compound (20 µL) and suspended in Eppendorf tubes. It was incubated for 35 min at 37 °C then the tubes were kept in an ice bath for 5 min and centrifuged again for 5 min. After centrifugation, the obtained supernatant was collected carefully and diluted with 900 µL of chilled PBS. All these tubes were kept in ice bath and solution (200 µL) was added into 96 well plates from each Eppendrof tube. For each essay, Triton X-100 (0.1%) was taken as positive control. For negative control, phosphate buffer was used. A microplate reader was used for determining the absorbance at 576 nm.

Setting [2] is: human, 35 min, 0.1 mg/mL, pH 7.4.

≈ marks a conversion by molar mass, not a printed value. Read-outs that look alike come from different tables or passages of the source.

Turning to `CC(=O)Nc1nc2ccc(-c3cc(C)cc(C)c3)cc2s1` [Compound 3h, N-(6-(3,5-Dimethylphenyl)benzo[d]thiazol-2-yl)acetamide], the melting point – broadly, the temperature of the solid-liquid transition – was in the range of 205 to 207 °C. In data set [1], the “IC50 (µg/mL) nitric oxide scavenging” value worked out at 32.3 µg/mL (≈ 109 µM). Besides, the inhibition at 40 µg/mL in the data set on S. dysenteriae worked out at 3.51 ± 0.43%. Further, at urease, the % Inhibition (in general, the relative decrease from the control value, in per cent) at 40 µg/mL came to 90.33 ± 0.20%; the inhibition at 15 µg/mL amounted to 43.59 ± 0.13%; the inhibition at 40 µg/mL was determined as 90.07 ± 0.2%. The midpoint of inhibition against urease (IC50 (µg/mL)), the IC50, lay at 62.1 µM. Moreover, the “% lysis of RBC” value with red blood cells (setting [2]) is listed as 40.661 ± 0.216%.

On to `CC(=O)Nc1nc2ccc(-c3ccc(F)c(Cl)c3)cc2s1` [Compound 3g, N-(6-(3-Chloro-4-fluorophenyl)benzo[d]thiazol-2-yl)acetamide], for which the melting point lay within 166 to 167 °C. Further, the “IC50 (µg/mL) nitric oxide scavenging” value in data set [1] is 39.1 µg/mL (≈ 122 µM). Further, the concentration for half-maximal inhibition (IC50) (as a rule, the concentration at which inhibition is half-maximal) at urease (IC50 (µg/mL)) was 58.9 µM. Also, at urease, the inhibition at 15 µg/mL came to 42 ± 0.14% and the inhibition at 40 µg/mL came out at 87 ± 0.26%. Besides, in the data set on red blood cells (setting [2]), the “% lysis of RBC” value is on record as 43.614 ± 0.157%.

In the case of `CC(=O)Nc1nc2ccc(Br)cc2s1` [Compound 2, N-(6-bromobenzo[d]thiazol-2-yl)acetamide], the “% lysis of RBC” value in the data set with red blood cells (compound solutions 1 mg/mL in 10% DMSO, human RBC, 35 min at 37 °C, mean ± SD of three) is 44.628 ± 0.369%.

Regarding `CC(=O)Nc1nc2ccc(-c3ccccc3)cc2s1` [Compound 3a, N-(6-Phenylbenzo[d]thiazol-2-yl)acetamide], the “IC50 (µg/mL) nitric oxide scavenging” value in data set [1] is 32.7 µg/mL (≈ 122 µM). At urease (IC50 (µg/mL)), this compound showed an IC50 of 69.3 µM. Further, on urease, the inhibition at 15 µg/mL came out at 44 ± 0.12% and the inhibition at 40 µg/mL turned out to be 83.9 ± 0.12%. Further, in the data set with red blood cells (setting [2]), the “% lysis of RBC” value was 42.123 ± 0.479%.

On to `NC(N)=S` [Thiourea, reference compound], for which the half-maximal inhibitory concentration (IC50) against urease is reported as 23.1 µg/mL.

`COc1ccc(-c2ccc3nc(NC(C)=O)sc3c2)cc1` [Compound 3d, N-(6-(4-Methoxyphenyl)benzo[d]thiazol-2-yl)acetamide] yielded a melting point of 218 to 220 °C. The IC50 on urease (IC50 (µg/mL)) is 57 µM. Moreover, on urease, the inhibition at 15 µg/mL was 46.5 ± 0.15% and the inhibition at 40 µg/mL was determined as 88.5 ± 0.24%. Also, the “% lysis of RBC” value in the data set on red blood cells (setting [2]) worked out at 44.078 ± 0.279%.

For `CC(=O)Nc1nc2ccc(-c3cc(C(F)(F)F)cc(C(F)(F)F)c3)cc2s1` [Compound 3c, N-(6-(3,5-bis(Trifluoromethyl)phenyl)benzo[d]thiazol-2-yl)acetamide], on urease, the “% Inhibition at 40 µg/mL” value worked out at 90.07 ± 0.20%, the inhibition at 15 µg/mL was 46.09 ± 0.1% and the inhibition at 40 µg/mL was 90.33 ± 0.2%. The compound further had a half-maximal inhibitory concentration (IC50) against urease (IC50 (µg/mL)) of 42.5 µM. For the same compound, in the data set with red blood cells (setting [2]), the “% lysis of RBC” value worked out at 47.089 ± 0.130%.

In the case of `O=C1O[C@H]([C@@H](O)CO)C(O)=C1O` [Ascorbic acid, reference compound], the “IC50 (µg/mL) nitric oxide scavenging” value in data set [1] is 50.43 µg/mL (≈ 286 µM).

Regarding `CC(=O)Nc1nc2ccc(-c3cc(C#N)cc(C(F)(F)F)c3)cc2s1` [Compound 3f, N-(6-(3-Cyano-5-(trifluoromethyl)phenyl)benzo[d]thiazol-2-yl)acetamide], the “nitric oxide scavenging activity (in words)” value in data set [1] was “inactive”. The compound also showed an IC50 on urease (IC50 (µg/mL)) of 53.1 µM. Moreover, on urease, the inhibition at 15 µg/mL was found to be 42 ± 0.12% and the inhibition at 40 µg/mL worked out at 87.5 ± 0.26%. Moreover, the “% lysis of RBC” value in the data set with red blood cells (setting [2]) was found to be 44.063 ± 0.314%.

Take `CC(=O)Nc1nc2ccc(-c3ccc(C)s3)cc2s1` [Compound 3e, N-(6-(5-Methylthiophen-2-yl)benzo[d]thiazol-2-yl)acetamide]: the “IC50 (µg/mL) nitric oxide scavenging” value in data set [1] turned out to be 37.1 µg/mL (≈ 129 µM). In addition, on urease (IC50 (µg/mL)), the concentration for half-maximal inhibition (IC50) is 59.6 µM. At urease, the inhibition at 15 µg/mL was determined as 46 ± 0.12% and the inhibition at 40 µg/mL came to 87 ± 0.26%. In the data set with red blood cells (setting [2]), the “% lysis of RBC” value is listed as 44.425 ± 0.181%.

On to `CC(=O)Nc1nc2ccc(-c3ccc(C)cc3)cc2s1` [Compound 3b, N-(6-(p-Tolyl)benzo[d]thiazol-2-yl)acetamide], for which the melting point lay in the range of 205 to 207 °C. Besides, in data set [1], the “IC50 (µg/mL) nitric oxide scavenging” value is reported as 26.4 µg/mL (≈ 93.5 µM). On urease (IC50 (µg/mL)), the IC50 is 58.4 µM. Besides, at urease, the inhibition at 15 µg/mL worked out at 47 ± 0.11% and the inhibition at 40 µg/mL amounted to 90.51 ± 0.19%. The “% lysis of RBC” value in the data set with red blood cells (setting [2]) stood at 44.179 ± 0.157%.
